| Structure (SMILES) | melting point |
| --- | --- |
| O=C1CC(=O)OC(CCc2ccccc2)(C2CCCC2)C1 (stereo unspecified) | 96 to 99 °C |
| CC(C)C(NC(=O)OCc1ccccc1)C(=O)NC(Cc1ccccc1)C(O)C(Cc1ccccc1)NC(=O)C(NC(=O)OCc1cccnc1)C(C)C (stereo unspecified) | 177 to 178 °C |
| Cc1c(C(=O)Cl)ccc(S(C)(=O)=O)c1-c1ccon1 | 85 to 88 °C |
| CCOC(=O)c1cnc(C)nc1NCc1ccc(-c2ccccc2-c2nnnn2C(c2ccccc2)(c2ccccc2)c2ccccc2)cc1 | 155 to 156 °C |
| CC(C=CC(C)C(C)(C)O)C1CCC2C(=O)CCCC21C (stereo unspecified) | 101 to 102 °C |
| CCOC(=O)c1cc(OC2COCCC2=O)[nH]n1 (stereo unspecified) | 121 to 123 °C |
| Cc1cncc(C)c1-c1c(C)cc(OS(=O)(=O)C(F)(F)F)cc1C | 68 to 69 °C |
| CC(C)CCN1CCC2(CC1)CSC1=C(O2)c2ccccc2C(=O)C1=O | 143 to 146 °C |
| CC(C)NNC(=O)NC1c2ccccc2Oc2ccccc21 | 162 °C |
| Nc1cccc2c1CN(c1nc3c(cc1F)c(=O)c(C(=O)O)cn3C1CC1)C2 | > 300 °C |
| COc1ccc(C(=O)CCCCCl)cc1S(=O)(=O)Cl | 69 to 70 °C |
| Cc1cc(C#N)ccc1N1CCCn2c1nc1c(Cl)ccc(C(OCC(F)(F)F)C3CC3)c12 (stereo unspecified) | 207 to 209 °C |
| O=C1COCCOCC(=O)N2CCOCCOCCN1CCOCC2 | 105 °C |
| CC(=O)N(C)c1ccc(N(CCCCN(c2ccc(N(C)C(C)=O)cc2)S(=O)(=O)c2ccccc2)S(=O)(=O)c2ccccc2)cc1 | 235 °C |
| O=C1OC(Cc2ccccc2)(Cc2ccccc2)C2CNCCN12 (stereo unspecified) | 132 to 133 °C |
| O=C1c2sccc2-n2cnc(-c3noc(CCl)n3)c2[C@@H]2CCN12 | 210 to 213 °C |
| CCC[C@H]1CC[C@H](c2ccc(F)c(F)c2)CC1 | -15.4 °C |
| CCCCOc1nc(=O)n(C(=O)NC)s1 | 108 °C |
| NCCc1c[nH]c2ccc(OCCCCc3ccccc3)cc12 | 130 to 132 °C |
| O=S(=O)(O)c1cccc2c1ccc1nc(O)c(O)nc12 | > 300 °C |
| CC(C)(C)OCCOc1cc(N)c([N+](=O)[O-])cc1I | 144 to 146 °C |

| Structure (SMILES) | melting point |
| --- | --- |
| CN1CCC(c2cc3ccc(Cl)cc3c(=O)[nH]2)CC1 | 253 to 255 °C |
| CCN(CC)c1ccc2cc(C(=O)OCCCCCCO)c(=O)oc2c1 | 85 to 86 °C |
| NCC1Cc2cc(C(F)(F)F)cc(-c3ccsc3)c2O1 (stereo unspecified) | > 250 °C |
| COC(=O)[C@H](Cc1ccc(N)cc1)NC(=O)OC(C)(C)C | 86 to 89 °C |
| CCCCS(=O)(=O)Nc1ccc(CCCCOCCCCCCNCC(O)c2ccc(O)c(CO)n2)cc1 (stereo unspecified) | 55 to 57 °C |
| FC(F)(F)c1cccc(N2CCN(Cc3n[nH]c4c(Cl)cccc34)CC2)c1 | 133 to 134 °C |
| CCOCCNc1nc(S)nc(N[C@@H](C)c2ccccc2)n1 | 53 °C |
| Cc1cc2c(cc1N)OC(=O)C2C (stereo unspecified) | 123 to 124 °C |
| NC1=NC(c2ccc(F)cc2)CO1 (stereo unspecified) | 116 to 121 °C |
| CC(C)=CCN1CCOC(CN2c3ccccc3C=Cc3ccccc32)C1 (stereo unspecified) | 99 to 100 °C |
| O=C(NC(=O)c1ccccc1F)NC1CN2CCC1CC2 (stereo unspecified) | 187 to 188 °C |
| CC(=O)Nc1nc(C)c(S(=O)(=O)NC(C)(CO)CO)s1 | 201 °C |
| CC(C)(C)OC(=O)[C@@H](N)Cc1ccc(O)c(I)c1 | 158 to 159 °C |
| O=C(O)/C=C(/c1ccccc1)c1ccc2ccccc2c1 | 170 to 172 °C |
| CC(=O)NCC1CN(c2ccc(N3CCN(C(=O)COC(=O)CCCN(C)C)CC3)c(F)c2)C(=O)O1 (stereo unspecified) | 69 to 71 °C |
| CCN(Cc1ccccc1)C(=O)Cc1c(-c2ccc(Cl)c(Cl)c2)nc2cc(C)ccn12 | 180 to 182 °C |
| O=C(CCC1CCCCC1)C1=C(O)CSC1=O | 60 to 62 °C |
| CC(C)(C)OC(=O)NNc1ccc(N)cn1 | 140 to 142 °C |
| COC(=O)[C@@H]1CSSCC(C)(C)C(=O)N1 | 87 to 89 °C |
| CCCCCCCCC#CCC#CCC#CCS(=O)CC(=O)NCC (stereo unspecified) | 77 °C |
| Cc1cc(O)c(N2CC(=O)NS2(=O)=O)c(F)c1 | 164 to 166 °C |

The remaining lines, values ahead:

| melting point | Structure (SMILES) |
| --- | --- |
| 137 to 138 °C | O=C(NO)c1ccc(CNC(=O)c2[nH]c(-c3ccccc3)cc2-c2ccc(C(F)(F)F)cc2)cc1 |
| 250 to 251 °C | Cc1nn(-c2ccccn2)c2[nH]c3ccc(C(F)(F)F)cc3c(=O)c12 |
| 158 to 160 °C | CC(=O)c1c(C)nc2c(OCc3c(Cl)ccc(S(=O)(=O)N4CCC[C@H]4C(=O)NCCCNC(=O)c4ccc(C=NN)cc4)c3Cl)cccn12 |
| 194 to 197 °C | CC(C)(C)OC(=O)CN1C(=O)C(N2C(=O)c3ccccc3C2=O)CCc2ccccc21 (stereo unspecified) |
| 111 to 113 °C | CCCCN(CC(=O)N1c2ccccc2N(C)C(=O)c2cnc(-c3ccccc3)nc21)C(C)(C)C |
| 106 to 108 °C | COC(=O)CCC(C(=O)c1cccc(I)c1)c1ccccc1C (racemic) |
| 210 °C | CCCCc1nnc2ccccc2c1Cc1ccc(-c2ccccc2)c(C(=O)O)c1 |
| 217 to 219 °C | O=C(O)CCCc1cc2cc(Cl)ccc2n1S(=O)(=O)c1cccc2cccnc12 |
| 175 to 179 °C | COc1ccc(/C=C/c2nc3ccccc3c(=O)o2)cc1OC |
| 112 to 114 °C | CC1=CC(C)(C)Cc2c1nc(C(C)C)c(CO)c2-c1ccc(F)cc1 |
| 135 °C | CC(C#N)(Cn1nnc2cc(Cl)ccc21)NC(=O)c1ccc(OC(F)(F)F)cc1 (stereo unspecified) |
| 87 to 90 °C | CCCc1c(COc2ccc(Cc3nnn(CC(=O)O)n3)cc2)ccc(C(C)=O)c1O |
| 132 to 134 °C | COc1cc(C(C)C)c2c(c1)S(=O)(=O)N(COC(=O)c1c(C)ccnc1C)C2=O |
| 135 to 141 °C | CC(C)(C)c1cccc(S(=O)(=O)n2c(CCCC(=O)O)cc3cc(C(F)(F)F)ccc32)c1 |
| 151 to 153 °C | COC(=O)NCc1nc(-c2ccc3c(c2)Nc2ccccc2S3)cs1 |
| 157 to 159 °C | COc1cc(OC)nc(Oc2cccc3c2C(=O)OC3C#N)n1 (stereo unspecified) |
| 220 to 221 °C | COc1ccc(COc2ccc(-c3ccc(C#N)c(=O)[nH]3)cc2OC)cc1OC |
| 159 to 162 °C | O=C(NCCC[C@H]1OC[C@H](c2cccc3cc(OCC4CC4)ccc32)CO1)Oc1ccc(Cl)cc1 |
| 40 °C | COc1cccc(C(=O)c2sccc2Br)c1 |
| 125 to 138 °C | N#CCc1cccc2c(-c3ccccc3)onc12 |
| 162 to 163 °C | CCN(CC)CCOc1ccc(Nc2ncc3c(n2)N(c2ccccc2)C(=O)N(c2c(Cl)cccc2Cl)C3)cc1 |
| 155 to 157 °C | O=C(O)c1ncc(OCc2ccccc2)c(OCc2ccccc2)c1Br |
| 85 to 86 °C | CCCCC1OC(=O)c2cc(C#N)ccc21 (stereo unspecified) |
| 228 to 229 °C | COc1cc2c(c3c1OC(C)(C)C3)C(c1ccccc1)=NC(CN1C(=O)c3ccccc3C1=O)C2 (stereo unspecified) |
| 103 to 106 °C | Cc1ccccc1-c1cn(C)cc(-c2ccc(Cl)c(Cl)c2)c1=O |
| 194 to 196 °C | CC(C)(C)c1ccc(C#N)cc1NC(=O)Nc1cccnc1 |
| 159 to 160 °C | CCCNC(=O)NS(=O)(=O)c1cc2c(cc1OC)OCCC2CNC(=O)c1cc(Cl)ccc1OC (stereo unspecified) |
| 206 to 207 °C | COc1ccc(C(=O)Nc2cc(NC(=O)c3cccc(OCC(=O)O)c3)ccc2C)cc1OC |
| 115 to 117 °C | Cc1ccc(S(=O)(=O)OC[C@H]2COc3ccc4nc(C)ccc4c3O2)cc1 |

Source: a melting point compilation (Tetko et al.; mined from patent text by program, amines drawn as free bases though some values may be those of a salt)
